# Measured values taken from patent US7696185B2, “Peptidomimetic inhibitors of PSMA, compounds comprising them, and methods of use” (Cancer Targered Technology LLC, priority 2006, dated 2010).
# pIC50, pKi: −log10 of the molar value.
# Assays:
# purified PSMA = target: T1, purified PSMA (Homo sapiens, UniProt Q04609); test: PMSA Inhibition Assay (HPLC, PAB-Glu-γ-Glu substrate); format: biochemical; conditions: for pIC50: read-out: IC50 against PSMA; for inhibitory potency / affinity for PSMA (in words): purified PSMA from LNCaP cells
# T1 construct: against purified PSMA from LNCaP cells by our published method; endogenous in cells; host or cells: LNCaP cells
# T1 sequence (Q04609 whole entry): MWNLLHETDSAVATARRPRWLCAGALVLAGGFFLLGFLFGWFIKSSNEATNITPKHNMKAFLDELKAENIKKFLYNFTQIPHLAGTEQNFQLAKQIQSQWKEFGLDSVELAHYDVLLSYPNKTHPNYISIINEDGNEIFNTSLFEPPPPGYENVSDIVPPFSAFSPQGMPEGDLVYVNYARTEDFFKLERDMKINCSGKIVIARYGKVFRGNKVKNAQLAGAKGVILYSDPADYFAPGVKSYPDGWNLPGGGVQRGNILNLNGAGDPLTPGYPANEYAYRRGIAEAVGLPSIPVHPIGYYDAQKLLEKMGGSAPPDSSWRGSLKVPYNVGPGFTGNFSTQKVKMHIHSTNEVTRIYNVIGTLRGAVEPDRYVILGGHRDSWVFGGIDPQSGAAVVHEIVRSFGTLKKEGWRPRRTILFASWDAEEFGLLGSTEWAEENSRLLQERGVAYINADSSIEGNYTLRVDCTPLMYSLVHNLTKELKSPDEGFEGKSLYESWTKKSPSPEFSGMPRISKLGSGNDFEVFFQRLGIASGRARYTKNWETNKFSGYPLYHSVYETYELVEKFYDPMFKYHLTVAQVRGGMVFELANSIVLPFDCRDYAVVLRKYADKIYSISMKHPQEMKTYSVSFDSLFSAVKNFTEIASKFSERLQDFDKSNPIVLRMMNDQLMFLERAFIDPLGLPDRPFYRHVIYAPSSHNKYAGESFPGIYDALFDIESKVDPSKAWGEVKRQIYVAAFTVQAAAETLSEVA
# Description: Adapted from, Maung, J.; Mallari, J. P.; Girtsman, T. A.; Wu, L. Y.; Rowley, J. A.; Santiago, N. M.; Brunelle, A.; Berkman, C. E. Probing for a Hydrophobic a Binding Register in Prostate-Specific Membrane Antigen with Phenylalkylphosphonamidates. […] Med. Chem. 2004, 12, 4969.
# Working solutions of the substrate (N-[4-(phenylazo)benzoyl]-glutamyl-g-glutamic acid, PAB-Glu-γ-Glu) and all inhibitors were made in TRIS buffer (50 mM, pH 7.4). Working solutions of purified PSMA were appropriately diluted in TRIS buffer (50 mM, pH 7.4) to provide from 15% to 20% conversion of substrate to product in the absence of inhibitor. A typical incubation mixture (final volume 250 μL) was prepared by the addition of either 25 μL of an inhibitor solution or 25 μL TRIS buffer (50 mM, pH 7.4) to 175 μL TRIS buffer (50 mM, pH 7.4) in a test tube. A volume of the 25 μL PAB-Glu-γ-Glu (100 μM) was added to the above solution. The enzymatic reaction was initiated by the addition of 25 μL of the PSMA working solution. In all cases, the final concentration of PAB-Glu-γ-Glu was 10 μM while the enzyme was incubated with five serially-diluted inhibitor concentrations to provide a range of inhibition from 10% to 90% inhibition. The reaction was allowed to proceed for 15 min with constant shaking at 37° C. and was terminated by the addition of 25 μL methanolic TFA (2% trifluoroacetic acid by volume in methanol) followed by vortexing. The quenched incubation mixture was quickly buffered by the addition of 25 μL K2HPO4 (0.1 M), vortexed, and centrifuged (10 min at 7000 g). An 85 μL aliquot of the resulting supernatant was subsequently quantified by HPLC. IC50 values were calculated using KaleidaGraph 3.6 (Synergy Software).
# PABGγG and its hydrolytic product (PABG) were separated and quantified using an analytical reversed-phase HPLC column (Lichrosphere C18 5 μm, 150×4.6 mm; Phenomenex, Torrence, Calif.) with a mobile phase consisting of ACN/potassium phosphate [25 mM, pH 2.0 (adjusted with H3PO4)] at a respective volume ratio of 40:60.
# PC3 cells = test: Fluorescence/confocal microscopy labeling of cells that do not express PSMA (negative control); format: cell-based; conditions: fluorescence microscopy
# Description: (§1) These compounds have been subsequently derivatized with amine-reactive fluorescent dyes (FIG. 9) to specifically label PSMA-expressing prostate cancer cells. […] Confocal microscopy was conducted on both LNCaP and PC3 prostate cancer cells after treatment with L6-V1-21 and propidium iodide.
# (§2) While propidium iodide stained the nuclei of both cell lines, only the surface of the PSMA-expressing LNCaP 6 cells were fluorescently labeled with L6-V1-21. The intensely labeled sites on these LNCaP cells are hypothesized to be locations in which PSMA has aggregated.
# (§3) To confirm that LW-54-F5EX was specific for PSMA-expressing cells, both LNCaP and PC3 cells were treated with this compound. While DAPI (4′,6-diamidino-2-phenylindole) stained nuclear DNA in both cell lines, only LNCaP cells were fluorescently labeled with LW-54-F5EX.
# (§4) In that experiment, both LNCaP and PC3 cells were treated with LW-54-5FAMX. While DAPI (4′,6-diamidino-2-phenylindole) stained nuclear DNA in both cell lines, only LNCaP cells were fluorescently labeled with LW-54-5FAMX.
# LNCaP cells = test: Fluorescence/confocal microscopy labeling of PSMA-expressing cells; format: cell-based; conditions: PSMA-expressing prostate cancer cells; fluorescence microscopy
# Description: as §1, §2, §3, §4
# PSMA [1] = target: T2, PSMA (Homo sapiens, UniProt Q04609); test: Inhibitor induced PSMA homodimer formation (Western blots); format: biochemical; conditions: treatment of PSMA with inhibitor
# T2 sequence (Q04609 whole entry): as above
# Description: As shown in the representative example in FIG. 6, covalent PSMA dimer formation mediated by T33 is both concentration dependent and time-dependent. […] Although we have not determined the mechanism of inhibition for T33, L36 and MP1D, it is clear that these agents represent a unique class of inhibitors of PSMA that may be used as covalent delivery vehicles specific for PSMA-expressing cancer cells. Based upon a cursory literature review, this is the first design and preparation of irreversible covalent modifiers of PSMA.
# PSMA [2] = target: T2, PSMA; test: Time-dependence and reversibility of PSMA inhibition (100-fold dilution of inhibited enzyme); format: biochemical; conditions: for reversibility of PSMA inhibition: recovery of PSMA activity after 100-fold dilution of inhibited enzyme
# MMP-2 = target: T3, MMP-2 (Homo sapiens, UniProt P08253); test: MMP-2 inhibition; format: biochemical; conditions: concentrations up to 10 μM
# T3 sequence (P08253 110-660): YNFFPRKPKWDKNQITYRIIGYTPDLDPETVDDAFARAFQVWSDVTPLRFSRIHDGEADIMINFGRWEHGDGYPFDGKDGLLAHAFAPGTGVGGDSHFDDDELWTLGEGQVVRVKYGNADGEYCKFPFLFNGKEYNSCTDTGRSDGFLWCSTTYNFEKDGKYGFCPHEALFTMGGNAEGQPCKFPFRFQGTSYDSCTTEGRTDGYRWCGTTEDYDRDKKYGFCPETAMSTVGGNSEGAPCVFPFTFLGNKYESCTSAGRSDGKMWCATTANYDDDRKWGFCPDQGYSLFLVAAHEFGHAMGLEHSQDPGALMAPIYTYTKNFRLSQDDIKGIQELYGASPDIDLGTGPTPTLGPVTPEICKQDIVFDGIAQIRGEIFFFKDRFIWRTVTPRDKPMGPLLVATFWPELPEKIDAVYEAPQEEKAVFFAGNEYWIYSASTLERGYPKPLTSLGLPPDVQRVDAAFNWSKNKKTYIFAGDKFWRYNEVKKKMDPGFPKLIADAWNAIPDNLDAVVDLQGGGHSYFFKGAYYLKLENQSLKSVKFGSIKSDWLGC
# [3] = target: matrix metalloproteinase-9 (MMP-9) (Homo sapiens, UniProt P14780); test: MMP-9 inhibition (specificity study); format: biochemical; conditions: preliminary study; read-out: Ki against MMP-9
# Chain of matrix metalloproteinase-9 (MMP-9) (P14780 94-707, species assumed): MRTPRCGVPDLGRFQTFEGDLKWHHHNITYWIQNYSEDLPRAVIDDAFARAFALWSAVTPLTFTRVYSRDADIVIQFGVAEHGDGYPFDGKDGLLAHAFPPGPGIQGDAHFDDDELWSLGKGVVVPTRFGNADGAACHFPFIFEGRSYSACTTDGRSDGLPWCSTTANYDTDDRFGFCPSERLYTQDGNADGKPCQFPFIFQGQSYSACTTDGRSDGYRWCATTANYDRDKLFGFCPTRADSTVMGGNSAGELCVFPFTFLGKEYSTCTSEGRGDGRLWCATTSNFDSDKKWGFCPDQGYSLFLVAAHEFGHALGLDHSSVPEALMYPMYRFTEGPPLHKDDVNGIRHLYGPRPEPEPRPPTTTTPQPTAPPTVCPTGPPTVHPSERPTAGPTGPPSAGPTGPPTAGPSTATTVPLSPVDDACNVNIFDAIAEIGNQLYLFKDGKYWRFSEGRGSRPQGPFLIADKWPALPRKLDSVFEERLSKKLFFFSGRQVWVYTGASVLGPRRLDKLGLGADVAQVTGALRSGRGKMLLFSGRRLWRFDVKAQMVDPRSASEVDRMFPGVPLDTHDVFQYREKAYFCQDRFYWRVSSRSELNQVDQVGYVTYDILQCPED
# Description: To determine that the design of the phosphoramidate inhibitors of the invention is specific to PSMA, a preliminary study was conducted with representative compounds from the T33 analog library (FIG. 1) with matrix metalloproteinase-9 (MMP-9). The MMP enzymes are zinc-dependent endopeptidases involved in the degradation of extracellular matrices.
smiles,measurement,setting,value
"O=C1C=CC2C(=C1)Oc1cc(O)ccc1C2c1ccc(NC(=S)N[C@@H](COP(=O)(O)N[C@@H](CCC(=O)O)C(=O)O)C(=O)O)cc1C(=O)O (stereo partly drawn) [Compound L6-V1-21, N-[{(2S)-2-carboxy-2-[({[3-carboxy-4-(6-hydroxy-3-oxo-9,9a-dihydro-3H-xanthen-9-yl)phenyl]amino}carbonothioyl)amino]ethoxy} (hydroxy)phosphoryl]-L-glutamic acid]",pIC50,purified PSMA,7.07
same,fluorescent labeling of PC3 cells,PC3 cells,no green fluorescent labeling
same,fluorescent labeling of LNCaP cells,LNCaP cells,extensive cell-surface labeling
"CN(C(=O)c1ccccc1)[C@@H](COP(=O)(O)N[C@@H](CCC(=O)O)C(=O)O)C(=O)O [Compound L36, N-[{(2S)-2-[benzoyl(methyl)amino]-2-carboxyethoxy} (hydroxy)phosphoryl]-L-glutamic acid]",inhibitory potency / affinity for PSMA (in words),purified PSMA,superior inhibitory potency
same,covalent PSMA homodimer formation,PSMA [1],formation of covalent PSMA homodimers
same,reversibility of PSMA inhibition,PSMA [2],irreversible
"O=C(O)CC[C@H](NP(=O)(O)OC[C@H](NC(=O)c1ccccc1)C(=O)O)C(=O)O [Compound T33, N-{[(2S)-2-(benzoylamino) -2-carboxyethoxy](hydroxy)phosphoryl}-L-glutamic acid]",inhibition of MMP-2,MMP-2,no inhibition
same,inhibitory potency / affinity for PSMA (in words),purified PSMA,superior inhibitory potency
same,pIC50,purified PSMA,> 7.30
same,covalent PSMA homodimer formation,PSMA [1],formation of covalent PSMA homodimers
same,time-dependence of PSMA inhibition,PSMA [2],time-dependent PSMA inhibition
same,reversibility of PSMA inhibition,PSMA [2],irreversible
"NCc1ccc(C(=O)N[C@@H](COP(=O)(O)N[C@@H](CCC(=O)O)C(=O)O)C(=O)O)cc1 [LW-39, N-{[(2S)-2-{[4-(aminomethyl)benzoyl]amino}-2-carboxyethoxy](hydroxy)phosphoryl}-L-glutamic acid]",reversibility of PSMA inhibition,PSMA [2],irreversible inhibitors
"O=C1C=CC2C(=C1)Oc1cc(O)ccc1C2c1ccc(NC(=O)CSCCC(=O)N[C@@H](CCC(=O)N[C@@H](COP(=O)(O)N[C@@H](CCC(=O)O)C(=O)O)C(=O)O)C(=O)O)cc1C(=O)O (stereo partly drawn) [LW-54-F5EX, N-{3-[(2-{[3-carboxy-4-(6-hydroxy-3-oxo-9,9a-di hydro-3H-xanthen-9-yl)phenyl]amino}-2-oxoethyl)thio]propanoyl}-L-γ-glutamyl -O-[{[(1S)-1,3-dicarboxypropyl]amino}(hydroxy)phosphoryl]-L-serine]",fluorescent labeling of PC3 cells,PC3 cells,no green fluorescent labeling
same,fluorescent labeling of LNCaP cells,LNCaP cells,extensive cell-surface labeling
"O=C(O)CC[C@H](NP(=O)(O)OCCCCc1ccccc1)C(=O)O [MP1D, N-[hydroxy(4-phenylbutoxy)phosphoryl]-L-glutamic acid]",inhibitory potency / affinity for PSMA (in words),purified PSMA,considerable affinity is maintained
same,reversibility of PSMA inhibition,PSMA [2],irreversible inhibition
"O=C(O)CC[C@H](NP(=O)(O)OCC(CCc1ccccc1)C(=O)O)C(=O)O (stereo partly drawn) [MP1E, N-[(2-carboxy-4-phenylbutoxy)(hydroxy)phosphoryl] -L-glutamic acid]",reversibility of PSMA inhibition,PSMA [2],irreversible
"O=C(O)CC[C@H](NP(=O)(O)OCc1ccc(-c2ccccc2)cc1)C(=O)O [NC-2-29, N-[(biphenyl-4-ylmethoxy) (hydroxy)phosphoryl]-L-glutamic acid]",pKi,[3],2.30
